From patent US20180353445A1, “METHODS AND COMPOSITIONS RELATING TO PROTEASOME INHIBITOR RESISTANCE” (Whitehead Institute for Biomedical Research, priority 2017, published 2018)

How the values were obtained:
T47D cells = assay: Combination of ABT-263 or ABT-199 with proteasome inhibitors, T47D cells with reduced PSMD2; format: cell-based, human; details: T47D cells with reduced PSMD2, 72 hours
Text: FIG. 18: Plots showing effect of various concentrations of ABT-263 (upper panels) or ABT-199 (lower panels) in combination with various concentrations of ixazomib un viability of T47D cells with reduced expression of PSMD2 (KB) (right panels) or control cells (left panels). Fold viability refers to the number of viable cells of the indicated type (PSMD2 KD or control cells) after culture in the presence of the test compounds (ixazomib +ABT-263 or ixazomib +ABT-199) divided by the number of viable cells of that type after culture in the absence of the test compounds. The concentrations of ABT-263 or ABT-199 tested are shown in the legend on the right side of each panel. If no concentration is listed, the compound was absent. Fold viability of control cells cultured in the presence of ixazomib alone (i.e., in the absence ABT-263 or ABT-199) is also shown in the panels showing effect of ixazomib +ABT-263 or ixazomib +ABT-199 on PSMD2 KD cells. […]
FIGS. 21A-21C: (FIG. 21A) Plot showing synergy of ABT-263 with ixazomib in T47D cells with reduced expression of PSMD2. […] The y-axis on each plot is the calculated EC50 in micromoles for either ixazomib or bortezomib in the presence of sublethal doses of ABT-263 or A.BT-199 as indicated. Compounds were added to the cells at the same time and cell viability was measured 72 hours later.

FDX1 = biological target: T1, FDX1 (Homo sapiens, UniProt P10109); assay: In vitro Fe-S cluster assembly with reduced FDX1 (absorbance at 456 nm); format: biochemical
T1 construct: made in house
T1 sequence (P10109 62-184): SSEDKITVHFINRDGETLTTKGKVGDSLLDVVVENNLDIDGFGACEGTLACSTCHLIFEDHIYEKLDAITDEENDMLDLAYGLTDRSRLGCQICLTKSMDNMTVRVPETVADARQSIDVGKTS
Text: FIGS. 47A-47C: Inhibition of Fe—S formation by elesclomol and variants (in-vitro). […] Note: “x(number) concentration” means that the indicated compound was present at 5 times the concentration of the enzyme.
(FIG. 53A) provides a schematic describing mitochondrial Fe—S cluster biosynthesis. The mitochondrial ISC (iron-sulfur cluster) core complex contains the scaffold protein ISCU and cysteine desulfurase (ACP-ISD11-NFS1)2. The latter catalyzes the conversion of cysteine to alanine and generates S° for iron sulfur cluster assembly. S° is reduced by FDX1. A [2Fe-2S] cluster is subsequently formed on ISCU. […] In vitro Fe—S cluster assembly was carried out with reduced. FDX1 as the reducing agent in the presence or absence of either 5× (green) or 10× (yellow) elesclomol (both relative to FDX1). Fe—S cluster formation was monitored by following the increase of absorbance at 456 nm. […] The red triangle denotes an NMR peak that became severely broadened. […] The [2Fe-2S] cluster in FDX1 is indicated by spheres.
The in vitro Fe—S cluster assembly was carried out with reduced FDX1 as the reducing agent and detected by following the increase of absorbance at 456 tun following the addition of either of 5× (green) or 10× (yellow, both relative to FDX1) compound-1. […] Fe—S formation was monitored by following the increase of absorbance at 456 nm. […] Cysteine desulfurase activity assay carried out with the indicated concentrations of elesclomol.

Structure (SMILES) | combination effect with bortezomib (T47D cells) | combination effect with ixazomib (T47D cells) | in vitro Fe-S cluster assembly with reduced FDX1 (FDX1; 5x or 10x relative to FDX1) | in vitro formation of Fe-S clusters mediated by FDX1 (FDX1; x5 concentration relative to enzyme)
CC1(C)CCC(c2ccc(Cl)cc2)=C(CN2CCN(c3ccc(C(=O)NS(=O)(=O)c4ccc(N[C@H](CCN5CCOCC5)CSc5ccccc5)c(S(=O)(=O)C(F)(F)F)c4)cc3)CC2)C1 [ABT-263, navitoclax] | synergy | synergy | – | –
CN(NC(=O)CC(=O)NN(C)C(=S)c1ccccc1)C(=S)c1ccccc1 [elesclomol] | – | – | inhibits in vitro Fe—S cluster assembly | sufficient to induce an inhibitory effect
